A short description of this data set: Release of albuterol from resinate in various vehicles (membrane-bottomed insert over wells of aqueous solution, simulating topical application to skin). The format is physicochemical. As to conditions: room temperature, sampled 0.5, 1, 2 and 4 hours. As to the method:
Albuterol was detected by HPLC on a Waters “Resolve” 5 micron spherical C18 resin column, with a mobile phase of 70% buffer and 30% methanol. Buffer was 4.4 g 1-heptane sulfonic acid in 100 g DI water, adjusted to pH 3.2±0.1 with glacial acetic acid. Albuterol extraction solvent was 10% v/v 0.5 M Na Acetate in ethanol. A stock solution of 0.5 mg albuterol/ml extraction buffer was diluted with 25 volumes of “diluent” (30:70 methanol:DI water, v:v) at the time of use. Samples were extracted to determine albuterol content by transferring 200 mg albuterol resin to a 250 ml flask, using extraction solvent; bringing the volume to about 220 ml of extraction solvent; shaking overnight at room temperature; adding extraction solvent to 250 ml; filtering an aliquot; and diluting filtered solution with 24 volumes of diluent. This solution was analyzed by HPLC, and the amount was determined by comparison with a chromatogram of the standard.
A system was developed to simulate the effects of topical application of a resin-bound drug in a vehicle to skin. […]
The experimental design allowed the pores of the membrane to fill with the aqueous solution. […] Wells were sampled at various times and the fluid was analyzed for albuterol. […]
7.5 g phosphate buffer (pH 6.8; 0.05 M) was added to each well. […] The inserts were removed, and the fluid in the wells (12 in all) was analyzed for albuterol by HPLC. […]

Regarding `CC(C)(C)NCC(O)c1ccc(O)c(CO)c1` (centres unmarked) [albuterol, Albuterol], the Release of albuterol entry is listed as “fastest” (albuterol resinate directly in ionic aqueous solution (phosphate buffer pH 6.8, 0.05 M), no vehicle, compared with NINA vehicles) and “not detectable” (albuterol resinate in hydrophobic castor oil/colloidal silica (2.5%) vehicle without surfactant, phosphate buffer pH 6.8 in well).

Values taken from patent US20070036843A1, “Non-ionic non-aqueous vehicles for topical and oral administration of carrier-complexed active agents” (Collegium Pharmaceutical, Inc., priority 2005, published 2007).
